Experimental data published in PubChem BioAssay AID330 (DTP/NCI, 2004).
Inconclusive results and toxic doses are left out.

Tested on: P388 leukemia ip, CD2F1 mice, survival T/C
Experiment: NCI In Vivo Anticancer Drug Screen. Data for tumor model P388 Leukemia (intraperitoneal) in CD2F1 (CDF1) mice
Settings: endpoint: median survival time, higher = longer survival
Summary of the method: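 Mice carrying the transplanted tumor received test compound or vehicle. Survival was recorded in each group, and the value is the treated-group measurement divided by that of the vehicle-treated control group.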

[1] = dose: 50.0 mg/kg/injection, schedule: Q01DX009 (ip), vehicle: saline with Tween-80
[2] = dose: 100.0 mg/kg/injection, schedule: Q01DX009 (ip), vehicle: saline with Tween-80
[3] = dose: 60.0 mg/kg/injection, schedule: Q01DX005 (ip), vehicle: saline with Tween-80
[4] = dose: 240.0 mg/kg/injection, schedule: Q01DX005 (ip), vehicle: saline with Tween-80
[5] = dose: 120.0 mg/kg/injection, schedule: Q01DX005 (ip), vehicle: saline with Tween-80

SMILES: C=CC1CN2CCC1CC2C(O)c1ccnc2ccc(OC)cc12 (centres undefined) (tested in a mixture with another compound)
- T/C [1]: 109 % of control
- T/C [2]: 109 % of control

SMILES: CCOC(=O)C1=C(N)CCCC1
- T/C (dose: 50.0 mg/kg/injection, schedule: Q01DX001 (ip), vehicle: Klucel (hydroxypropylcellulose) (HPC)): 107 % of control
- T/C (dose: 100.0 mg/kg/injection, schedule: Q01DX001 (ip), vehicle: Klucel (hydroxypropylcellulose) (HPC)): 96 % of control
- T/C (dose: 200.0 mg/kg/injection, schedule: Q01DX001 (ip), vehicle: Klucel (hydroxypropylcellulose) (HPC)): 110 % of control
- T/C (dose: 400.0 mg/kg/injection, schedule: Q01DX001 (ip), vehicle: Klucel (hydroxypropylcellulose) (HPC)): 99 % of control

SMILES: Cc1nn(C)c(Cl)c1C(=O)Nc1ccccc1
- T/C (dose: 50.0 mg/kg/injection, schedule: Q01DX005 (ip), vehicle: saline with Tween-80): 96 % of control
- T/C [3]: 98 % of control
- T/C (dose: 100.0 mg/kg/injection, schedule: Q01DX005 (ip), vehicle: saline with Tween-80): 96 % of control
- T/C (dose: 200.0 mg/kg/injection, schedule: Q01DX005 (ip), vehicle: saline with Tween-80): 90 % of control
- T/C [4]: 92 % of control

SMILES: O=C(CN1CCCCC1)Nc1cccc(Cl)c1
- T/C [1]: 100 % of control
- T/C (dose: 50.0 mg/kg/injection, schedule: Q01DX009 (ip), vehicle: saline): 103 % of control
- T/C [2]: 100 % of control
- T/C (dose: 100.0 mg/kg/injection, schedule: Q01DX009 (ip), vehicle: saline): 107 % of control
- T/C (dose: 200.0 mg/kg/injection, schedule: Q01DX009 (ip), vehicle: saline with Tween-80): 123 % of control
- T/C (dose: 200.0 mg/kg/injection, schedule: Q01DX009 (ip), vehicle: saline): 120 % of control

SMILES: CNC(=O)Oc1ccccc1OC(C)C
- T/C (dose: 7.5 mg/kg/injection, schedule: Q01DX005 (ip), vehicle: Klucel (hydroxypropylcellulose) (HPC)): 97 % of control
- T/C (dose: 15.0 mg/kg/injection, schedule: Q01DX005 (ip), vehicle: Klucel (hydroxypropylcellulose) (HPC)): 96 % of control

SMILES: COC12C(COC(N)=O)C3=C(C(=O)C(C)=C(N4CC4)C3=O)N1CC1NC12 (centres undefined)
- T/C (dose: 0.13 mg/kg/injection, schedule: Q04DX003 (ip), vehicle: saline sonified): 154 % of control
- T/C (dose: 0.25 mg/kg/injection, schedule: Q04DX003 (ip), vehicle: saline sonified): 163 % of control
- T/C (dose: 0.33 mg/kg/injection, schedule: Q04DX003 (ip), vehicle: saline with Tween-80): 91 % of control
- T/C (dose: 0.5 mg/kg/injection, schedule: Q04DX003 (ip), vehicle: saline sonified): 181 % of control
- T/C (dose: 0.75 mg/kg/injection, schedule: Q04DX003 (ip), vehicle: saline with Tween-80): 87 % of control

SMILES: O=S(=O)(O)C(O)c1cccnc1 (centres undefined)
- T/C (dose: 100.0 mg/kg/injection, schedule: Q01DX009 (ip), vehicle: saline sonified): 100 % of control
- T/C (dose: 200.0 mg/kg/injection, schedule: Q01DX009 (ip), vehicle: saline sonified): 100 % of control
- T/C (dose: 400.0 mg/kg/injection, schedule: Q01DX009 (ip), vehicle: saline sonified): 100 % of control

SMILES: O=C(Nc1ccc(Cl)cc1)Nc1nnc(-c2cc([N+](=O)[O-])cc([N+](=O)[O-])c2)o1
- T/C [3]: 98 % of control
- T/C [5]: 92 % of control
- T/C [4]: 86 % of control

SMILES: CN(C)C12CCC(c3ccccc31)c1ccccc12
- T/C [3]: 105 % of control
- T/C [5]: 97 % of control
- T/C [4]: 104 % of control

SMILES: CNC(=O)SC1=NS(=O)(=O)c2ccc(Cl)cc2N1
- T/C (dose: 60.0 mg/kg/injection, schedule: Q01DX005 (ip), vehicle: Klucel (hydroxypropylcellulose) (HPC)): 110 % of control
- T/C (dose: 120.0 mg/kg/injection, schedule: Q01DX005 (ip), vehicle: Klucel (hydroxypropylcellulose) (HPC)): 107 % of control

SMILES: CC(=O)OCC12C(=O)CC(C)C3(CC(c4ccoc4)OC3=O)C1CCC(=O)C2(O)CCl (centres undefined)
- T/C (dose: 0.75 mg/kg/injection, schedule: Q01DX005 (ip), vehicle: saline + alcohol): 96 % of control
- T/C (dose: 1.5 mg/kg/injection, schedule: Q01DX005 (ip), vehicle: saline + alcohol): 106 % of control
- T/C (dose: 3.0 mg/kg/injection, schedule: Q01DX005 (ip), vehicle: saline + alcohol): 103 % of control
- T/C (dose: 6.0 mg/kg/injection, schedule: Q01DX005 (ip), vehicle: saline + alcohol): 108 % of control
- T/C (dose: 12.0 mg/kg/injection, schedule: Q01DX005 (ip), vehicle: saline + alcohol): 106 % of control
- T/C (dose: 12.5 mg/kg/injection, schedule: Q01DX005 (ip), vehicle: saline + Tween-80 + alcohol): 90 % of control
- T/C (dose: 25.0 mg/kg/injection, schedule: Q01DX005 (ip), vehicle: saline + Tween-80 + alcohol): 90 % of control
- T/C (dose: 50.0 mg/kg/injection, schedule: Q01DX005 (ip), vehicle: saline + Tween-80 + alcohol): 93 % of control
- T/C (dose: 150.0 mg/kg/injection, schedule: Q01DX005 (ip), vehicle: saline + Tween-80 + alcohol): 100 % of control
